Laboratory results: patent US8796457B2, “Compound useful for the treatment of degenerative and inflammatory diseases” (Galapagos NV, priority 2009, dated 2014)

Columns and labels:
JAK2 [1] = molecular target: T1, JAK2 (Homo sapiens (Human), UniProt O60674); experiment: JAK2 Ki determination assay (Ulight-JAK-1 peptide); type: biochemical; conditions: Lineweaver-Burk; Ulight-JAK-1 (Tyr1023) peptide, alternative protocol
Protocol: Alternatively, for the determination of Ki, different amounts of inhibitor were mixed with the enzyme and the enzymatic reaction was followed as a function of ATP concentration. […] 0.0125 mU of JAK2 (Invitrogen, PV4210) was used in the assay. The substrate was 50 nM Ulight-JAK-1 (Tyr1023) Peptide (Perkin Elmer, TRF0121). The reaction was performed in 25 mM HEPES pH 7.0, 0.01% Triton X-100, 2 mM DTT, 7.5 mM MgCl2 with varying concentrations of ATP and compound. Phosphorylated substrate was measured using an Eu-labeled anti-phosphotyrosine antibody PT66 (Perkin Elmer, AD0068). Readout was performed on the envision (Perkin Elmer) with excitation at 320 nm and emission followed at 615 nm and 665 nm.

JAK1 [2] = molecular target: T2, JAK1 (Homo sapiens (Human), UniProt P23458); experiment: JAK1 Ki determination assay (Ulight-JAK-1 peptide); type: biochemical; conditions: Lineweaver-Burk; Ulight-JAK-1 (Tyr1023) peptide, alternative protocol
T2 sequence (P23458 866-1154): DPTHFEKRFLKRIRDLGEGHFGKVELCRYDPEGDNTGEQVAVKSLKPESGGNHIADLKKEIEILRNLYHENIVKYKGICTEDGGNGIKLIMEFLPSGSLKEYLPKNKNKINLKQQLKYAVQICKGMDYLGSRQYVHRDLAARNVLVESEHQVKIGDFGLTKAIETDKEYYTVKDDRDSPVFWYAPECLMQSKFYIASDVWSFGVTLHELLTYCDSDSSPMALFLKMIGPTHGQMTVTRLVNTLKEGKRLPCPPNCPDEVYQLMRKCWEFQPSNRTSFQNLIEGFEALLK
Protocol: Alternatively, for the determination of Ki, different amounts of inhibitor were mixed with the enzyme and the enzymatic reaction was followed as a function of ATP concentration. The Ki was determined by means of double reciprocal plotting of Km vs compound concentration (Lineweaver-Burk plot). 1 ng of JAK1 (Invitrogen, PV4774) was used in the assay. The substrate was 50 nM Ulight-JAK-1 ([MUT]) Peptide (Perkin Elmer, TRF0121) The reaction was performed in 25 mM MOPS pH 6.8, 0.01%, 2 mM DTT, 5 mM MgCl2 Brij-35 with varying concentrations of ATP and compound. Phosphorylated substrate was measured using an Eu-labeled anti-phosphotyrosine antibody PT66 (Perkin Elmer, AD0068). Readout was performed on the envision (Perkin Elmer) with excitation at 320 nm and emission followed at 615 nm and 665 nm.

JAK1 [3] = molecular target: T2, JAK1; experiment: JAK1 Ki determination assay (polyGT, 33P filter plate); type: biochemical; conditions: Lineweaver-Burk; polyGT substrate, 33P readout
Protocol: For the determination of Ki, different amounts of inhibitor were mixed with the enzyme and the enzymatic reaction was followed as a function of ATP concentration. The Ki was determined by means of double reciprocal plotting of Km vs compound concentration (Lineweaver-Burk plot). JAK1 (Invitrogen, PV4774) was used at a final concentration of 500 ng/ml. […] Measurement of incorporated phosphate into the substrate polyGT was done by loading the samples on a filter plate (using a harvester, Perkin Elmer) and subsequent washing. Incorporated ^33P in polyGT is measured in a Topcount scintillation counter after addition of scintillation liquid to the filter plates (Perkin Elmer).

JAK3 = JAK3 (Homo sapiens (Human), UniProt P52333); experiment: JAK3 Ki determination assay; type: biochemical; conditions: Lineweaver-Burk; polyGT substrate, 33P readout
JAK3, sequence (P52333 whole entry): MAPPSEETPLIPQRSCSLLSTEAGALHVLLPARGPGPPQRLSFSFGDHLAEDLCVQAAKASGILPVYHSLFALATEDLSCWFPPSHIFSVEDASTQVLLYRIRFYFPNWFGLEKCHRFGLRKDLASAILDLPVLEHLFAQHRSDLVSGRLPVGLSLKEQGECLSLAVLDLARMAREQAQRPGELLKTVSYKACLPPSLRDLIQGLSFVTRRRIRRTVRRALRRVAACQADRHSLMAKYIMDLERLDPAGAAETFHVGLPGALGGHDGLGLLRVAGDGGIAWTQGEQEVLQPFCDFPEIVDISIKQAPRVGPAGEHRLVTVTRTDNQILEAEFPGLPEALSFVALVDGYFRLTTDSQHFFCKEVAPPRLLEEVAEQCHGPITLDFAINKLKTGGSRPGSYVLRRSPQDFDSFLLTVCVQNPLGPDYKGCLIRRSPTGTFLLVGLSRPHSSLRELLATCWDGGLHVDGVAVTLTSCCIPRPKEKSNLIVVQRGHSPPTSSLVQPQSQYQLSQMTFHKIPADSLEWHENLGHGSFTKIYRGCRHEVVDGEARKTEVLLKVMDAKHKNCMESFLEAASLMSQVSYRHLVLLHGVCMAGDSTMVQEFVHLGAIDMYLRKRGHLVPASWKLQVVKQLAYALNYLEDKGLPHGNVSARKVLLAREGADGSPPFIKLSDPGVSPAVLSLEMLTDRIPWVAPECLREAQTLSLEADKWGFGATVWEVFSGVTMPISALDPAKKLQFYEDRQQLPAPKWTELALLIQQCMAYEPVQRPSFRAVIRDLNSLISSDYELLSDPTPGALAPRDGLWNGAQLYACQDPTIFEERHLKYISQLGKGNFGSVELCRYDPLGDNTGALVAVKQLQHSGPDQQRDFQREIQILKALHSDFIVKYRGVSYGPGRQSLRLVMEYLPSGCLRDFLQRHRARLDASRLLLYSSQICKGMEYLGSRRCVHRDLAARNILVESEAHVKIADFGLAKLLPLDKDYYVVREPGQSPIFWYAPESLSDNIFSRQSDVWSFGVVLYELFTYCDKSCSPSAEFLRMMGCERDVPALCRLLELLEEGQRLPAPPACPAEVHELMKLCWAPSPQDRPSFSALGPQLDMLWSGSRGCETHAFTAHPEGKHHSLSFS
Description: For the determination of Ki, different amounts of inhibitor were mixed with the enzyme and the enzymatic reaction was followed as a function of ATP concentration.

[4] = Microsomal stability, human; type: in vitro ADME; conditions: human liver microsomes, 3 μM compound, 37° C.
Protocol: A 10 mM stock solution of compound in DMSO was diluted 1000 fold in a 182 mM phosphate buffer pH7.4 in a 96 deep well plate (Greiner, Cat no. 780285) and pre-incubated at 37° C.
40 μL of deionised water was added to a well of a polypropylene Matrix 2D barcode labelled storage tube (Thermo Scientific) and pre-incubated at 37° C.
A Glucose-6-phophate-dehydrogenase (G6PDH) working stock solution was prepared in 182 mM phosphate buffer pH7.4 and placed on ice before use. A co-factor containing MgCl2, glucose-6-phosphate and NADP+ was prepared in deionised water and placed on ice before use. […]
These plates were sealed with sealing mats (MA96RD-04S) of www.kinesis.co.uk and samples were measured at room temperature on LCMS (ZQ 1525 from Waters) under optimized conditions using Quanoptimize to determine the appropriate mass of the parent molecule.
The samples were analyzed on LCMS with a flow rate of 1 mL/min. […]
Peak area from the parent compound at time 0 was considered to be 100% remaining. The percentage remaining after 1 hour incubation was calculated from time 0 and was calculated as the percentage remaining. […]
The data on microsomal stability are expressed as a percentage of the total amount of compound remaining after 60 minutes.

[5] = test system: MMP13 levels in SW1353 cells; experiment: OSM/IL-1β signaling assay (MMP13); type: cell-based; conditions: Homo sapiens, 25 ng/mL OSM and 1 ng/mL IL-1β, 48 hours, average ± standard error of the mean
Description: 5% CO2. […] The data are expressed as the average EC50 from the assays±standard error of the mean.

JAK2 [6] = molecular target: T1, JAK2; experiment: JAK2 Ki determination assay (polyGT, 33P filter plate); type: biochemical; conditions: Lineweaver-Burk; polyGT substrate, 33P readout
Description: For the determination of Ki, different amounts of inhibitor were mixed with the enzyme and the enzymatic reaction was followed as a function of ATP concentration. […] 0.025 mU of JAK2 (Invitrogen, PV4210) was used in the assay.

[7] = molecular target: Recombinant human JAK1 (catalytic domain) (Homo sapiens (Human), UniProt P23458); experiment: JAK1 inhibition assay; type: biochemical; conditions: average ± standard error of the mean; 7 μM ATP
Recombinant human JAK1 (catalytic domain), sequence (P23458 866-1154): as the sequence (P23458 866-1154) above
Protocol: After 60 min at room temperature, reactions were stopped by adding 20 μL/well of detection mixture (1× detection buffer (Perkin Elmer, catalog number CR97-100C), 0.5 nM Europium-anti-phosphotyrosine (PT66) (Perkin Elmer, catalog number AD0068), 10 mM EDTA). […] Kinase activity was calculated by subtracting relative fluorescence units (RFU) obtained in the presence of a positive control inhibitor (10 μM staurosporine) from RFU obtained in the presence of vehicle.
Dose dilution series were prepared for the compounds enabling the testing of dose-response effects in the JAK1 assay and the calculation of the IC50 for the compound. […] The data are expressed as the average IC50 from the assays±standard error of the mean.

T1 sequence (O60674 849-1124): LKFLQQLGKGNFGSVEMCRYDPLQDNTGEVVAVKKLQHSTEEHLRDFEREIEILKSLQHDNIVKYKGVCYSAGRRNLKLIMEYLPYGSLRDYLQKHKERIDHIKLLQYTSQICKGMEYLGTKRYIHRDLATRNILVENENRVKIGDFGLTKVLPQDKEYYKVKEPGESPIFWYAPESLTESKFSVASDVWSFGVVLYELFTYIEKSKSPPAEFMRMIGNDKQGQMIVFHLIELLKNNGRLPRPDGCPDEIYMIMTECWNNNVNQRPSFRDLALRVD

For `CC1(C)CN(C(=O)c2ccc(-c3cccc4nc(NC(=O)C5CC5)nn34)cc2)C1` [Compound 1, Cyclopropanecarboxylic acid{5-[4-(3,3-dimethyl-azetidine-1-carbonyl)-phenyl]-[1,2,4]triazolo[1,5-a]pyridin-2-yl}-amide], the Ki (JAK2 [1]) was 35 nM, the Ki (JAK1 [2]) was 5.6 nM and the Ki (JAK1 [3]) was 6.9 nM. The Ki (JAK3) was 188 nM, the “Microsomal stability, percentage of compound remaining after 60 minutes, Human” value [4] was 76-100% and the EC50 [5] was 4200 ± 2370 nM. For the same compound, the Ki (JAK2 [6]) was 126 nM and the IC50 [7] was 6.6 ± 0.7 nM.
